Here are results for seven molecules from ChEMBL document CHEMBL2401678, “Synthesis and changes in affinity for NOP and opioid receptors of novel hexapeptides containing β(2)-tryptophan analogues” (Bioorg Med Chem Lett, 2013).

As usually defined, the Emax is the greatest response seen or fitted, relative to the assay's reference. As a reminder, the EC50 is the concentration at which the effect is half-maximal. A word on the pEC50: it is −log10 of the EC50, conventionally taken in molar units.

Active and inactive are the calls of the source. The rule behind the calls is not given here. *1 amine or outer side, *2 acyl side, *3 side chain or, on linkers, in order; H or OH if unused. Where a SMILES comes first, the peptide text is derived from it. [ ]: non-standard residue; d: D form. X2 = COc1ccc2[nH]cc([C@H](CN[*:1])C(=O)[*:2])c2c1; X1 = Cn1cc([C@H](CN[*:1])C(=O)[*:2])c2ccccc21

For test [1], the target named is Nociceptin receptor (Rattus norvegicus) (UniProt P35370). As to the kind of experiment: Activity at Wistar rat NOP receptor assessed as inhibition of low-frequency electrically-stimulated vas deferens contraction at 1 x 10^-6 M relative to control.
Chain of Nociceptin receptor (Rattus norvegicus) (P35370 whole entry): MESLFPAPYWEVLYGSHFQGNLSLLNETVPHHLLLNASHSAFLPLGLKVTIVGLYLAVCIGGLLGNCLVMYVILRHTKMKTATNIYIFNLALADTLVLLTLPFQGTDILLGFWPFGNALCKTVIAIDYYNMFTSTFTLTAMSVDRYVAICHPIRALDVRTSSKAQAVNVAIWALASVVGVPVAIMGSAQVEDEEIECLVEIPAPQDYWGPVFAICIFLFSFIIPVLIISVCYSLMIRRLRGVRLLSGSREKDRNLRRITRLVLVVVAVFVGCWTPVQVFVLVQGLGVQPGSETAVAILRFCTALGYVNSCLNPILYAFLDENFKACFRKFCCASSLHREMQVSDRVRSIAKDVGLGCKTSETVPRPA
Test [2] deals with T1, Mu-type opioid receptor (Rattus norvegicus, UniProt P33535). Briefly: Activity at Wistar rat mu opioid receptor assessed as inhibition of low-frequency electrically-stimulated vas deferens contraction in presence of naloxone.
T1 sequence (P33535 whole entry): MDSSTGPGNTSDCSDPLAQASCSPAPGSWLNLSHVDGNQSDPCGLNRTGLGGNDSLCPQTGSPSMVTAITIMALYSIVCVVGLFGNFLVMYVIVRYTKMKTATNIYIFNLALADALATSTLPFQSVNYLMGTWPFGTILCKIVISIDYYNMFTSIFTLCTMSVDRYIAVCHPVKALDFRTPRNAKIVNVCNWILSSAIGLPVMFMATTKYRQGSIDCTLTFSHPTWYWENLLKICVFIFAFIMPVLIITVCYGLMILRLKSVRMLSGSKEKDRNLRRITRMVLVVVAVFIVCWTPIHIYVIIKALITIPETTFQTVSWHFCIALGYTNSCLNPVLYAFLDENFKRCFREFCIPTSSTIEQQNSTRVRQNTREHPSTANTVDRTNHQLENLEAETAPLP
For test [3], the target named is Mu-type opioid receptor (Rattus norvegicus) (UniProt P33535). As to the kind of experiment: Activity at Wistar rat mu opioid receptor assessed as inhibition of low-frequency electrically-stimulated vas deferens contraction at 1 x 10^-5 M relative to control.
Chain of Mu-type opioid receptor (Rattus norvegicus) (P33535 whole entry): as above
For test [4] the target is unchanged. As to the kind of experiment: Activity at Wistar rat mu opioid receptor assessed as inhibition of low-frequency electrically-stimulated vas deferens contraction at 1 x 10^-5 M in presence of naloxone relative to control.
Test [5] addresses T1, Mu-type opioid receptor. Briefly: Activity at Wistar rat mu opioid receptor assessed as inhibition of low-frequency electrically-stimulated vas deferens contraction.
Test [6] has as its target Mu-type opioid receptor (Rattus norvegicus) (UniProt P33535). Briefly: Activity at Wistar rat mu opioid receptor assessed as inhibition of low-frequency electrically-stimulated vas deferens contraction at 1 x 10^-11 to […] in presence of naloxone.
Test [7] shares this target. Briefly: Activity at Wistar rat mu opioid receptor assessed as inhibition of low-frequency electrically-stimulated vas deferens contraction at 1 x 10^-6 to 1 x 10^-5 M in presence of naloxone benzoylhydrazone.
For test [8], the target named is T2, Nociceptin/mu opioid receptor (Rattus norvegicus, UniProt P33535+P35370). As to the kind of experiment: Activity at Wistar rat NOP/mu opioid receptor assessed as inhibition of low-frequency electrically-stimulated vas deferens contraction in presence of naloxone. The test is classed as protein assay.
The target in test [9] is T3, Nociceptin/mu opioid receptor (Rattus norvegicus) (UniProt P33535+P35370). Briefly: Activity at Wistar rat NOP/mu opioid receptor assessed as inhibition of low-frequency electrically-stimulated vas deferens contraction at 1 x 10^-5 M relative to control. It is filed as protein assay.
T3 sequence (P33535 whole entry, looked up): as the sequence (P33535 whole entry) above
T3 sequence (P35370 whole entry, looked up): as the sequence (P35370 whole entry) above
Test [10] addresses T3, Nociceptin/mu opioid receptor (Rattus norvegicus). As to the kind of experiment: Activity at Wistar rat NOP/mu opioid receptor assessed as inhibition of low-frequency electrically-stimulated vas deferens contraction at 1 x 10^-5 M in presence of naloxone relative to control. It is filed as protein assay.
Test [11] deals with T2, Nociceptin/mu opioid receptor. As to the kind of experiment: Activity at Wistar rat NOP/mu opioid receptor assessed as inhibition of low-frequency electrically-stimulated vas deferens contraction. The test is classed as protein assay.
Test [12] concerns the target Mu-type opioid receptor (Rattus norvegicus) (UniProt P33535). Briefly: Activity at Wistar rat mu opioid receptor assessed as inhibition of low-frequency electrically-stimulated vas deferens contraction at 1 x 10^-6 to 1 x 10^-5 M.
The target is the same in test [13]. As to the kind of experiment: Activity at Wistar rat mu opioid receptor assessed as inhibition of low-frequency electrically-stimulated vas deferens contraction up to 1 x 10^-5 M in presence of naloxone benzoylhydrazone.
Test [14] concerns the target T3, Nociceptin/mu opioid receptor (Rattus norvegicus). Briefly: Activity at Wistar rat NOP/mu opioid receptor assessed as inhibition of low-frequency electrically-stimulated vas deferens contraction at 1 x 10^-5 M in presence of naloxone. The test is classed as protein assay.
Test [15] has the same target. As to the kind of experiment: Activity at Wistar rat NOP/mu opioid receptor assessed as inhibition of low-frequency electrically-stimulated vas deferens contraction at 1 x 10^-5 M in presence of naloxone benzoylhydrazone. It is filed as protein assay.
In test [16] the target is Nociceptin receptor (Rattus norvegicus) (UniProt P35370). As to the kind of experiment: Activity at Wistar rat NOP receptor assessed as inhibition of low-frequency electrically-stimulated vas deferens contraction at 1 x 10^-6 M in presence of naloxone relative to control.
Test [17] has the same target. Briefly: Activity at Wistar rat NOP receptor assessed as inhibition of low-frequency electrically-stimulated vas deferens contraction at 1 x 10^-11 to 1 x 10^-5 M in presence of naloxone.
Test [18] addresses T4, Nociceptin receptor (Rattus norvegicus, UniProt P35370). As to the kind of experiment: Activity at Wistar rat NOP receptor assessed as inhibition of low-frequency electrically-stimulated vas deferens contraction.
Test [19] concerns the target T4, Nociceptin receptor. Briefly: Activity at Wistar rat NOP receptor assessed as inhibition of low-frequency electrically-stimulated vas deferens contraction in presence of naloxone.
Test [20] has as its target Nociceptin receptor (Rattus norvegicus) (UniProt P35370). As to the kind of experiment: Activity at Wistar rat NOP receptor assessed as inhibition of low-frequency electrically-stimulated vas deferens contraction at 1 x 10^-6 M in presence of naloxone benzoylhydrazone.

T4 sequence (P35370 whole entry): as above

In the case of `C[C@H](NC(=O)CNC(=O)[C@@H](NC(=O)[C@H](Cc1ccccc1)NC(=O)CNC(=O)CNC(=O)[C@@H](N)Cc1ccccc1)[C@@H](C)O)C(=O)N[C@@H](CCCNC(=N)N)C(=O)N[C@@H](CCCCN)C(=O)N[C@@H](CO)C(=O)N[C@@H](C)C(=O)N[C@@H](CCCNC(=N)N)C(=O)N[C@@H](CCCCN)C(N)=O`, in test [1], the Emax was -73%.

For the molecule `CSCC[C@H](NC(=O)[C@H](Cc1ccccc1)NC(=O)[C@H](CCCNC(=N)N)NC(C)=O)C(=O)NC[C@H](C(=O)N[C@@H](CCSC)C(=O)N[C@@H](CCCCN)C(N)=O)c1cn(C)c2ccccc12` (Ac-RFM[X1]MK-NH2), the EC50 on Mu-type opioid receptor [2] was 1620 nM; on Mu-type opioid receptor [5] it was 1230 nM. The Emax was -50% in test [3] and -15% in [4]. The inhibition result in test [6] and in [7] was “inactive” each time.

Turning to `COc1ccc2[nH]cc([C@H](CNC(=O)[C@H](CCSC)NC(=O)[C@H](Cc3ccccc3)NC(=O)[C@H](CCCNC(=N)N)NC(C)=O)C(=O)N[C@@H](CCSC)C(=O)N[C@@H](CCCCN)C(N)=O)c2c1` (Ac-RFM[X2]MK-NH2), the pEC50 in test [8] was determined as 6.26; in test [11] it was 5.78. Besides, the Emax in test [9] was -34%; in test [10] it was -14%. Besides, in test [12], the inhibition result was “Active”. The inhibition result in test [13] is “inactive”.

Turning to `CC(=O)N[C@@H](CCCNC(=N)N)C(=O)N[C@@H](Cc1ccc(O)cc1)C(=O)N[C@@H](Cc1ccc(O)cc1)C(=O)N[C@@H](CCCNC(=N)N)C(=O)NC[C@H](C(=O)N[C@@H](CCCCN)C(N)=O)c1cn(C)c2ccccc12` (Ac-RYYR[X1]K-NH2), the pEC50 stood at 6.21 in test [8] and 6.5 in test [11]. In [14], the inhibition entry is “Active”. Moreover, the results for the Emax in [9] and in [10] were -36% and -17%, respectively. Moreover, in test [15], the inhibition entry is “inactive”.

For the molecule `COc1ccc2[nH]cc([C@H](CNC(=O)[C@H](CCCNC(=N)N)NC(=O)[C@H](Cc3ccc(O)cc3)NC(=O)[C@H](Cc3ccc(O)cc3)NC(=O)[C@H](CCCNC(=N)N)NC(C)=O)C(=O)N[C@@H](CCCCN)C(N)=O)c2c1` (Ac-RYYR[X2]K-NH2), the Emax in [16] is -12%; in [1], -52%. Further, the inhibition entry in test [17] was “inactive”. In addition, the EC50 at Nociceptin receptor [18] is 1410 nM; on Nociceptin receptor [19], 1660 nM.

For the molecule Ac-RFMWMK-NH2, the results for the concentration giving a half-maximal response (EC50) on Mu-type opioid receptor [2] and on Mu-type opioid receptor [5] were 1150 nM and 1020 nM, respectively. Also, the Emax in test [3] is -52%; in test [4], -14%. Moreover, the inhibition result in test [6] and in [7] was “inactive” each time.

As for Ac-RYYRWK-NH2, the figures for the Emax in test [16] and in [1] were -31% and -36%, respectively. Also, the results for the EC50 on Nociceptin receptor [18] and at Nociceptin receptor [19] were 15.8 nM and 6.17 nM, respectively. Moreover, the inhibition entry in test [20] was “inactive”.
